This is an account of results in patent publication US20100204150A1, “USE OF A PEPTIDE AS A THERAPEUTIC AGENT” (priority 2007, published 2010).

Where no end group is shown, it is not given here. [ ]: non-standard residue; d: D form.

In this assay the test system is drug-resistant Mycobacterium tuberculosis. Nature of the assay: Mycobacterium tuberculosis assay. Format: cell-based. The conditions noted are these: 10 micrograms per ml; seven days; strain resistant to PAS, streptomycin and INH; combination 0.95:1.05 mole and all ratios 1:100 to 100:1.

Take HPFHL[dL]VY-OH [Peptide 1]: the “inhibition of the growth of Mycobacterium tuberculosis” value was found to be 100%.

In the case of “Ac-Arg-Phe-Met-Trp-Met-Arg-NH2 (Ac-RFMWMR-NH2) [Peptide 2]”, the “inhibition of the growth of Mycobacterium tuberculosis” value is 100%.
